In patent publication US20240216401A1, “COMBINATION THERAPY BY USING AKR1C3-ACTIVATED COMPOUND WITH IMMUNE CHECKPOINT INHIBITOR” (OBI Pharma, Inc., priority 2021, published 2024):
Values joined by “and” are separate entries in the source; they are usually repeats but may differ in a detail not shown here. Equal entries are not always repeated.

What was measured:
[1] = Example 2: body weight of HepG2 tumor bearing humanized mice; assay type: in vivo, Mus musculus; settings: for Body Weight: individual animal; for Body Weight (g) Mean: group mean
Procedure: 1. Species: Mus musculus • Strain: Advanced immunodeficiency mouse. • (NOD.CgPrkdc^scid Il2rg) • Source: Trineo Biotechnology Co., LTD.
Each group contains six mice. The human hepatocellular carcinoma cell line HepG2 were subcutaneously inoculated to the advanced immune-deficiency mice. Total of 42 mice were included in this study.
3.1. […] The injection was performed using insulin syringe with the dosage of 0.3 mg/kg or 1 mg/kg and the injection volume was 5 mL/kg. […] The reference item was administered for G1. The procedure followed the standards of sample administration. The starting day of test item administration was denoted as the first experimental day (DO).
3.2. […] The injection was performed using insulin syringe with the dosage of 20 mg/kg and injection volume of 10 mL/kg. […] The procedure followed the standards of sample administration.
The measurement was performed from the next day of the inoculation. The animal body weights were measured and recorded twice per week.

[2] = system: Dendritic cells in tumor-infiltrating lymphocytes; experiment: Example 2: flow cytometry, percentage of Dendritic cells in TILs; assay type: in vivo, Mus musculus; settings: individual animals and Mean
Procedure: Mice were sacrificed by CO2 euthanasia at the end of the study duration, and the connective tissue around tumor was resected. The tumor samples were then weighed and cut equally into three sections if the tumor weight over 400 mg. The tumor tissue was prepared for the isolation of tumor-infiltrating lymphocytes (TILs). The rest of one section was fixed in 10% formaldehyde and embedded in paraffin; the other was stored at a temperature below −70° C.
The tumor samples were dissected into smaller fragments using scalpels and then digested with a cocktail of collagenase, DNase I, and Hyaluronidase (Collagenase #C5138, DNase I #D5025, Hyaluronidase #H6254, SigmaAldrich) for at least 2 hours.
Cells were stained with the fluorescently conjugated surface antibodies and incubated for 30 minutes at 4° C., and then resuspended in staining buffer for flow cytometric analysis. Flow cytometry was done using a Navios EX Flow Cytometer (Beckman Coulter). Data were analyzed using the Kaluza Analysis Software (Beckman Coulter).

[3] = system: preclinical models of T-ALL; settings: in vitro and in vivo; references 25, 26; cited from earlier work
[4] = G2: OBI-3424 (0.3 mg/kg), 0.3 mg/kg
[5] = G2: OBI-3424 (0.3 mg/kg), 0.3 mg/kg, mean
[6] = G3: OBI-3424 (1 mg/kg), 1 mg/kg
[7] = G3: OBI-3424 (1 mg/kg), 1 mg/kg, mean

C[C@H](OP(=O)(N1CC1)N1CC1)c1ccc([N+](=O)[O-])c(Oc2cccc(C(=O)N(C)C)c2)c1 [OBI-3424, (S)-1-(3-(3-N,N-dimethylaminocarbonyl)phenoxyl-4-mtrophenyl)-1-ethyl-N,N′-bis(ethylene)phosphoramidate]
Body Weight ([1]; G2: OBI-3424 0.3 mg/kg, D16 after test item administration, 0.3 mg/kg): 24.02 g and 24.56 g and 24.17 g | Body Weight ([1]; G2: OBI-3424 0.3 mg/kg, D20 after test item administration, 0.3 mg/kg): 22.00 g and 24.21 g and 23.98 g | Body Weight ([1]; G2: OBI-3424 0.3 mg/kg, D23 after test item administration, 0.3 mg/kg): 23.98 g | Body Weight (g) Mean ([1]; G2: OBI-3424 0.3 mg/kg, D30 after test item administration): 22.06 g | Body Weight ([1]; G2: OBI-3424 0.3 mg/kg, D30 after test item administration, 0.3 mg/kg): 20.17 g and 21.65 g | Body Weight ([1]; G2: OBI-3424 0.3 mg/kg, L0 after tumor cell injection, 0.3 mg/kg): 20.66 g and 23.04 g and 25.00 g | Body Weight ([1]; G2: OBI-3424 0.3 mg/kg, L1 after tumor cell injection, 0.3 mg/kg): 23.02 g | Body Weight (g) Mean ([1]; G2: OBI-3424 0.3 mg/kg, L3 after tumor cell injection): 22.99 g | Body Weight ([1]; G2: OBI-3424 0.3 mg/kg, L7 after tumor cell injection, 0.3 mg/kg): 23.01 g | Body Weight ([1]; G3: OBI-3424 1 mg/kg, D2 after test item administration, 1 mg/kg): 20.20 g and 24.22 g | Body Weight ([1]; G3: OBI-3424 1 mg/kg, D6 after test item administration, 1 mg/kg): 24.90 g | Body Weight ([1]; G3: OBI-3424 1 mg/kg, D9 after test item administration, 1 mg/kg): 22.01 g and 24.85 g | Body Weight ([1]; G3: OBI-3424 1 mg/kg, D13 after test item administration, 1 mg/kg): 25.97 g | Body Weight ([1]; G3: OBI-3424 1 mg/kg, D20 after test item administration, 1 mg/kg): 24.21 g and 25.53 g and 21.98 g | Body Weight (g) Mean ([1]; G3: OBI-3424 1 mg/kg, D23 after test item administration): 24.04 g | Body Weight ([1]; G3: OBI-3424 1 mg/kg, D23 after test item administration, 1 mg/kg): 23.02 g and 25.37 g | Body Weight ([1]; G3: OBI-3424 1 mg/kg, D30 after test item administration, 1 mg/kg): 22.02 g | Body Weight ([1]; G3: OBI-3424 1 mg/kg, L0 after tumor cell injection, 1 mg/kg): 19.46 g | Body Weight ([1]; G3: OBI-3424 1 mg/kg, L3 after tumor cell injection, 1 mg/kg): 20.70 g and 24.21 g and 20.80 g and 24.01 g | Body Weight ([1]; G3: OBI-3424 1 mg/kg, L7 after tumor cell injection, 1 mg/kg): 24.22 g and 25.55 g | CD86^+ DC cells (CD45^+CD11c^+CD86^+) Cell count [2, 4]: 6.36 ×10^5 and 14.34 ×10^5 and 27.59 ×10^5 and 1.25 ×10^5 and 15.63 ×10^5 and 4.71 ×10^5 | CD86^+ DC cells (CD45^+CD11c^+CD86^+) Total % [2, 4]: 3.27% and 7.01% and 5.11% and 5.82% and 6.34% and 6.50% | CD91^+ DC cells (CD45^+CD11c^+CD91^+) Cell count [2, 4]: 0.18 ×10^5 and 0.16 ×10^5 and 0.54 ×10^5 and 0.02 ×10^5 and 0.22 ×10^5 and 0.04 ×10^5 | CD91^+ DC cells (CD45^+CD11c^+CD91^+) Total % [2, 4]: 0.09% (2×) and 0.08% (2×) and 0.10% and 0.06% | DC cells (CD45^+CD11c^+) CD45+ Gated % [2, 4]: 32.90% and 30.81% and 44.83% and 19.60% and 24.30% and 36.70% | DC cells (CD45^+CD11c^+) Cell count [2, 4]: 10.62 ×10^5 and 23.35 ×10^5 and 105.79 ×10^5 and 2.74 ×10^5 and 25.44 ×10^5 and 9.18 ×10^5 | DC cells (CD45^+CD11c^+) Total % [2, 4]: 5.46% and 11.42% and 19.59% and 12.80% and 10.32% and 12.66% | CD86^+ DC cells (CD45^+CD11c^+CD86^+) Cell count [2, 5]: 11.65 ×10^5 | CD86^+ DC cells (CD45^+CD11c^+CD86^+) Total % [2, 5]: 5.68% | CD91^+ DC cells (CD45^+CD11c^+CD91^+) Cell count [2, 5]: 0.19 ×10^5 | CD91^+ DC cells (CD45^+CD11c^+CD91^+) Total % [2, 5]: 0.08% | DC cells (CD45^+CD11c^+) CD45+ Gated % [2, 5]: 31.52% | DC cells (CD45^+CD11c^+) Cell count [2, 5]: 29.52 ×10^5 | DC cells (CD45^+CD11c^+) Total % [2, 5]: 12.04% | CD86^+ DC cells (CD45^+CD11c^+CD86^+) Cell count [2, 6]: 2.23 ×10^5 and 10.59 ×10^5 and 5.46 ×10^5 and 6.73 ×10^5 and 6.98 ×10^5 and 7.11 ×10^5 | CD86^+ DC cells (CD45^+CD11c^+CD86^+) Total % [2, 6]: 7.68% and 8.39% and 7.73% and 6.81% and 9.38% and 8.78% | CD91^+ DC cells (CD45^+CD11c^+CD91^+) Cell count [2, 6]: 0.04 ×10^5 (2×) and 0.10 ×10^5 and 0.06 ×10^5 (2×) and 0.08 ×10^5 | CD91^+ DC cells (CD45^+CD11c^+CD91^+) Total % [2, 6]: 0.14% and 0.08% (2×) and 0.09% and 0.06% and 0.07% | DC cells (CD45^+CD11c^+) CD45+ Gated % [2, 6]: 23.54% and 31.09% and 41.01% and 19.89% and 35.18% and 28.58% | DC cells (CD45^+CD11c^+) Cell count [2, 6]: 4.40 ×10^5 and 23.57 ×10^5 and 13.84 ×10^5 and 12.22 ×10^5 and 16.67 ×10^5 and 14.15 ×10^5 | DC cells (CD45^+CD11c^+) Total % [2, 6]: 15.16% and 18.68% and 19.60% and 12.37% and 22.41% and 17.47% | CD86^+ DC cells (CD45^+CD11c^+CD86^+) Cell count [2, 7]: 6.52 ×10^5 | CD86^+ DC cells (CD45^+CD11c^+CD86^+) Total % [2, 7]: 8.13% | CD91^+ DC cells (CD45^+CD11c^+CD91^+) Cell count [2, 7]: 0.06 ×10^5 | CD91^+ DC cells (CD45^+CD11c^+CD91^+) Total % [2, 7]: 0.09% | DC cells (CD45^+CD11c^+) CD45+ Gated % [2, 7]: 29.88% | DC cells (CD45^+CD11c^+) Cell count [2, 7]: 14.14 ×10^5 | DC cells (CD45^+CD11c^+) Total % [2, 7]: 17.62% | efficacy against preclinical models of T-ALL (in words) [3]: potent efficacy
